These are literature values, as cited in US9067940B2, “Alicyclic derivatives of N,N'-substituted 3,7-diazabicyclo[3.3.1]nonanes and medicaments based thereon” (priority 2011, dated 2015).

Data set [1] relates to AMPA receptors. As to conditions: only at high concentrations.
The test system of data set [2] is AMPA receptors.
The test system of data set [3] is AMPA receptors. As to conditions: adult rats, 0.3-3 mg/kg.
The conditions of data set [4]: behavioral models.
For data set [5] the following is noted: mice suffering from diabetes.

With `COc1ccc(C(=O)N2CCCC2=O)cc1` [aniracetam], the “concentration at which the clinical effect is manifested” value in the data set on AMPA receptors [1] is recorded as 0.1 mM. The “effect on NMDA-mediated signals” value with NMDA-mediated signals was “no effect”. Besides, the “effect on synaptic signal at several hippocampus sites” value in the data set on AMPA receptors [2] is given as “enhances the synaptic signal”.
As to `O=C(c1ccc2c(c1)OCCO2)N1CCCCC1` [CX546], the social memory entry in the data set on AMPA receptors [3] is “improves social memory”.
For the molecule `COc1ccc(C(=O)NCCCC(=O)O)cc1` [anisoyl-GABA], in the data set with AMPA receptors [2] (metabolite of aniracetam), the aniracetam-like effects entry is recorded as “no aniracetam-like effects”.

B1: BDNF: brain-derived neurotrophic factor, a neural tissue growth factor (protein, UniProt P23560 19-247, looked up)
Neurotrophic factor BDNF …: APMKEANIRGQGGLAYPGVRTHGTLESVNGPKAGSRGLTSLADTFEHVIEELLDEDQKVRPNEENNKDADLYTSRVMLSSQVPLEPPLLFLLEEYKNYLDAANMSMRVRRHSDPARRGELSVCDSISEWVTAADKKTAVDMSGGTVTVLEKVPVSKGQLKQYFYETKCNPMGYTKEGCRGIDKRHWNSQCRTTQSYVRALTMDSKKRIGWRFIRIDTSCVCTLTIKRGR
For the molecule B1, the antidepressant effect entry in data set [4] is listed as “antidepressant effect”. Also, in data set [5], the blood glucose concentration result is reported as “reduce the blood glucose concentration”.
